Data taken from ChEMBL document CHEMBL1201862, “PubChem BioAssay data set” (2004).
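Briefly, cells in 96-well plates were exposed to five compound concentrations for 48 h, and endpoints were estimated by linear interpolation. GI50 = concentration required for 50% inhibition of growth.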 Calls of active or inactive are those of the source. Cut-off read from the data, not from the text of the source: active = GI50 up to about 1.1 µM and inactive = higher.

How the values were obtained:
Experiment in all cases: NCI anticancer screen, dose series, 48 h
TK-10 = system: TK-10
A549 = system: A549
UACC-257 = system: UACC-257
OVCAR-8 = system: OVCAR-8
SK-MEL-5 = system: SK-MEL-5
T47D = system: T47D
SK-MEL-2 = system: SK-MEL-2
SK-OV-3 = system: SK-OV-3
OVCAR-4 = system: OVCAR-4
NCI/ADR-RES = system: NCI/ADR-RES
HCT-116 = system: HCT-116
RPMI-8226 = system: RPMI-8226
MOLT-4 = system: MOLT-4
CCRF-CEM = system: CCRF-CEM
786-0 = system: 786-0
SW-620 = system: SW-620
LOX IMVI = system: LOX IMVI
SF-539 = system: SF-539
SK-MEL-28 = system: SK-MEL-28
UO-31 = system: UO-31

Measured: GI50

O=C1N=C(Nc2ccccc2Cl)N/C1=C\c1ccc(Cl)cc1Cl
inactive: TK-10 > 100 µM | A549 98.9 µM | UACC-257 75.3 µM | OVCAR-8 38.3 µM | SK-MEL-5 71.9 µM | T47D > 100 µM | SK-MEL-2 18.9 µM | SK-OV-3 > 100 µM | OVCAR-4 44.3 µM | NCI/ADR-RES 45.6 µM | HCT-116 38.4 µM | RPMI-8226 > 100 µM | MOLT-4 66.8 µM | CCRF-CEM 29.5 µM | 786-0 68.2 µM | SW-620 46.3 µM | LOX IMVI > 100 µM | SF-539 37.8 µM | SK-MEL-28 99.8 µM | UO-31 > 100 µM

COC(=O)c1c[nH]c2c1-c1cc(C(=O)OCc3ccccc3)n(S(=O)(=O)c3ccc(C)cc3)c1C(=O)C2=O
inactive: TK-10 2 µM | SK-OV-3 1.24 µM
active: A549 0.716 µM | UACC-257 0.156 µM | OVCAR-8 0.237 µM | SK-MEL-5 0.132 µM | T47D 0.871 µM | SK-MEL-2 0.195 µM | OVCAR-4 0.299 µM | NCI/ADR-RES 0.45 µM | HCT-116 0.228 µM | RPMI-8226 0.362 µM | MOLT-4 0.356 µM | CCRF-CEM 0.346 µM | 786-0 0.22 µM | SW-620 0.214 µM | LOX IMVI 0.139 µM | SF-539 0.197 µM | SK-MEL-28 0.12 µM | UO-31 0.327 µM

O=C(NCCNCCNC(=O)c1cc(-c2ccccc2)nc2ccccc12)c1cc(-c2ccccc2)nc2ccccc12
inactive: TK-10 2.4 µM | A549 3.37 µM | UACC-257 1.98 µM | OVCAR-8 2.04 µM | SK-MEL-5 1.77 µM | T47D 2.72 µM | SK-MEL-2 1.82 µM | SK-OV-3 7.46 µM | OVCAR-4 2 µM | NCI/ADR-RES 1.76 µM | HCT-116 1.7 µM | RPMI-8226 2.73 µM | MOLT-4 2.37 µM | CCRF-CEM 3.77 µM | 786-0 1.69 µM | SW-620 1.75 µM | LOX IMVI 1.69 µM | SF-539 2 µM | SK-MEL-28 1.77 µM | UO-31 2.64 µM

O=C1NCc2ccccc2S(=O)(=O)n2cccc21
inactive: TK-10 > 100 µM | A549 > 100 µM | UACC-257 > 100 µM | OVCAR-8 > 100 µM | SK-MEL-5 > 100 µM | T47D 50.7 µM | SK-MEL-2 64.4 µM | SK-OV-3 > 100 µM | OVCAR-4 > 100 µM | NCI/ADR-RES > 100 µM | HCT-116 63.1 µM | RPMI-8226 > 100 µM | MOLT-4 > 100 µM | CCRF-CEM > 100 µM | 786-0 > 100 µM | SW-620 > 100 µM | LOX IMVI > 100 µM | SF-539 > 100 µM | SK-MEL-28 > 100 µM | UO-31 > 100 µM

C=CCC1(C)CCCN(Cc2ccccc2)C1=O (stereo not given)
active: SK-MEL-5 0.41 µM
inactive: TK-10 > 10 µM | A549 > 10 µM | UACC-257 > 10 µM | OVCAR-8 > 10 µM | T47D > 10 µM | SK-MEL-2 > 10 µM | SK-OV-3 > 10 µM | OVCAR-4 > 10 µM | NCI/ADR-RES > 10 µM | HCT-116 > 10 µM | RPMI-8226 > 10 µM | MOLT-4 > 10 µM | CCRF-CEM > 10 µM | 786-0 > 10 µM | SW-620 > 10 µM | LOX IMVI > 10 µM | SF-539 > 10 µM | SK-MEL-28 > 10 µM | UO-31 > 10 µM

NCCc1nc(-c2nc(C(=O)O)cs2)cs1
inactive: TK-10 > 100 µM | A549 > 100 µM | UACC-257 > 100 µM | OVCAR-8 > 100 µM | SK-MEL-5 > 100 µM | T47D > 100 µM | SK-MEL-2 > 100 µM | SK-OV-3 > 100 µM | OVCAR-4 > 100 µM | NCI/ADR-RES > 100 µM | HCT-116 > 100 µM | RPMI-8226 > 100 µM | MOLT-4 > 100 µM | CCRF-CEM > 100 µM | 786-0 > 100 µM | SW-620 > 100 µM | LOX IMVI > 100 µM | SF-539 > 100 µM | SK-MEL-28 > 100 µM | UO-31 > 100 µM

COc1nc2ncc([C@@H](O)[C@H](O)CO)nc2c(=O)[nH]1
inactive: TK-10 > 100 µM | A549 > 100 µM | UACC-257 > 100 µM | OVCAR-8 > 100 µM | SK-MEL-5 > 100 µM | T47D > 100 µM | SK-MEL-2 > 100 µM | SK-OV-3 > 100 µM | OVCAR-4 > 100 µM | NCI/ADR-RES > 100 µM | HCT-116 > 100 µM | RPMI-8226 > 100 µM | MOLT-4 > 100 µM | CCRF-CEM > 100 µM | 786-0 > 100 µM | SW-620 > 100 µM | LOX IMVI > 100 µM | SF-539 > 100 µM | SK-MEL-28 > 100 µM | UO-31 > 100 µM

O=C(CSCC(=O)N/N=C/c1cccs1)N/N=C/c1cccs1
inactive: TK-10 > 100 µM | A549 > 100 µM | UACC-257 > 100 µM | OVCAR-8 37 µM | SK-MEL-5 76.4 µM | T47D > 100 µM | SK-MEL-2 93.1 µM | SK-OV-3 > 100 µM | OVCAR-4 45.2 µM | NCI/ADR-RES 40 µM | HCT-116 > 100 µM | RPMI-8226 42.4 µM | MOLT-4 64.7 µM | CCRF-CEM 51.6 µM | 786-0 47.6 µM | SW-620 > 100 µM | LOX IMVI > 100 µM | SF-539 52.8 µM | SK-MEL-28 > 100 µM | UO-31 48.3 µM

CCOc1cc2c(NCCCN(CCO)CCO)ncnc2c(OCC)c1OCC
inactive: TK-10 > 100 µM | A549 > 94.4 µM | UACC-257 > 83.2 µM | OVCAR-8 > 100 µM | SK-MEL-5 > 100 µM | T47D > 90.4 µM | SK-MEL-2 > 87.3 µM | SK-OV-3 > 100 µM | OVCAR-4 > 88.5 µM | NCI/ADR-RES > 100 µM | HCT-116 > 100 µM | RPMI-8226 > 100 µM | MOLT-4 > 87.1 µM | CCRF-CEM > 100 µM | 786-0 > 100 µM | SW-620 > 100 µM | LOX IMVI > 100 µM | SF-539 > 100 µM | SK-MEL-28 > 62.5 µM | UO-31 > 100 µM

CCCCN1C(=O)C2Cc3c([nH]c4ccccc34)C(c3cccc(O)c3)N2C1=O (stereo not given)
inactive: TK-10 18.3 µM | A549 18.4 µM | UACC-257 18.7 µM | OVCAR-8 18.9 µM | SK-MEL-5 17 µM | T47D 24.4 µM | SK-MEL-2 18 µM | SK-OV-3 16.1 µM | OVCAR-4 18.7 µM | NCI/ADR-RES 18.5 µM | HCT-116 18.7 µM | RPMI-8226 23.1 µM | MOLT-4 26.7 µM | CCRF-CEM 18.2 µM | 786-0 18.9 µM | SW-620 19.9 µM | LOX IMVI 18 µM | SF-539 18.8 µM | SK-MEL-28 19 µM | UO-31 17.5 µM

O=C1Nc2c(Cl)cc(Cl)cc2/C1=N/Nc1ccccc1[N+](=O)[O-]
inactive: TK-10 22.6 µM | A549 69.2 µM | UACC-257 > 100 µM | OVCAR-8 30.3 µM | SK-MEL-5 > 100 µM | T47D 70.5 µM | SK-MEL-2 18.2 µM | SK-OV-3 30.1 µM | OVCAR-4 29 µM | NCI/ADR-RES 40.3 µM | HCT-116 38.2 µM | RPMI-8226 > 100 µM | MOLT-4 46.1 µM | CCRF-CEM 46 µM | 786-0 5.75 µM | SW-620 > 100 µM | LOX IMVI 84.5 µM | SF-539 13 µM | SK-MEL-28 75.7 µM | UO-31 > 100 µM

CC(=O)O[C@H]1C[C@H](O[C@H]2[C@@H](O)C[C@H](O[C@H]3[C@@H](O)C[C@H](O[C@H]4CC[C@@]5(C)[C@H](CC[C@@H]6[C@@H]5CC[C@]5(C)[C@@H](C7=CC(=O)OC7)CC[C@]65O)C4)O[C@@H]3C)O[C@@H]2C)O[C@H](C)[C@H]1O[C@@H]1O[C@H](CO)[C@@H](O)[C@H](O)[C@H]1O
active: TK-10 0.0174 µM | A549 < 0.01 µM | UACC-257 0.0726 µM | OVCAR-8 0.0275 µM | SK-MEL-5 0.0237 µM | T47D 0.0387 µM | SK-MEL-2 0.0452 µM | SK-OV-3 0.0395 µM | OVCAR-4 < 0.0179 µM | NCI/ADR-RES < 0.0169 µM | HCT-116 < 0.01 µM | RPMI-8226 0.0373 µM | CCRF-CEM 0.0269 µM | 786-0 0.0162 µM | SW-620 0.0202 µM | LOX IMVI < 0.0159 µM | SF-539 < 0.014 µM | SK-MEL-28 0.136 µM | UO-31 0.0242 µM
inactive: MOLT-4 > 100 µM

CCCCC/C=C\C=C1\C(=O)C=C[C@@H]1C/C=C\CCCC(=O)O
inactive: TK-10 8.43 µM | A549 5.73 µM | UACC-257 7.29 µM | OVCAR-8 1.49 µM | SK-MEL-5 3.78 µM | T47D 9.35 µM | SK-MEL-2 3.05 µM | SK-OV-3 7.06 µM | OVCAR-4 1.53 µM | NCI/ADR-RES 1.24 µM | HCT-116 1.23 µM | RPMI-8226 1.38 µM | MOLT-4 2.25 µM | 786-0 3.21 µM | SW-620 2.8 µM | LOX IMVI 2.27 µM | SF-539 5.82 µM | SK-MEL-28 6.65 µM | UO-31 6.31 µM
active: CCRF-CEM 0.205 µM
